# Results reported in patent US7358250B2, “Pyrrolo[2,3-d]pyrimidines that modulate ACK1 activity” (Amgen Inc., priority 2004, dated 2008).
# Key:
# HeLa cells = assay: ACK1 Cell Based Assay, control (HeLa) cell line; conditions: 0.125% FCS, 20 to 24 h
# Protocol: (§1) The ACK1 cell based assay is designed to find inhibitors of ACK1 kinase activity which would be prime candidates for the development of anticancer drugs. […] This dependency was confirmed utilizing ACK1 specific siRNAs.
# (§2) For this assay, test (C8) and control (HeLa) cell lines are seeded in 96 well tissue culture plates (BD Falcon) at a density of 2 to 4×10^4 in DMEM/F12 (C8) or DMEM (HeLa) with 0.125% FCS in the presence of ACK1 inhibitors (final DMSO concentration is 0.5%, all tissue culture media are from Cellgro). After 20 to 24 h incubation at 37° C. and 5% CO2, cell viability is determined using the Cytotox One kit (Promega) according to the manufacturer's instructions.
# ACK1 = target: T1, ACK1 (Homo sapiens, UniProt Q07912); assay: ACK1 Enzymatic Assay; format: biochemical; conditions: 5 μM ATP, ELISA phosphotyrosine readout
# T1 construct: a fusion of an N-terminal (His)6 Tag with amino acids 117 to 489 of ACK1; (His)6 (N); made in house; host or cells: baculovirus infected Hi-5 insect cells
# T1 sequence (Q07912 117-489): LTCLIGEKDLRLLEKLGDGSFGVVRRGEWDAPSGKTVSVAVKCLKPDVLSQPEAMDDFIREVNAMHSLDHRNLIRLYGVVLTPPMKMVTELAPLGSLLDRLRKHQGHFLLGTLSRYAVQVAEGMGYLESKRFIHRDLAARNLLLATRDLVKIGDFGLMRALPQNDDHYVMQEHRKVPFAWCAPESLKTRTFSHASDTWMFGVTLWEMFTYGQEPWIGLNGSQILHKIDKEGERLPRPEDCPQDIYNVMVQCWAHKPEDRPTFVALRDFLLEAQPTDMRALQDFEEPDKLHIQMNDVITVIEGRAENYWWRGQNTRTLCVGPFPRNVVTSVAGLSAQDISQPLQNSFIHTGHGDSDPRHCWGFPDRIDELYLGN
# Protocol: IC50 values of inventive compounds may be assessed as follows. […] The substrate of for the reaction is ACK1 itself (autophosphorylation) and poly-Glutamic acid-Tyrosine (PGT (4:1), Sigma catalog #PO275). The PGT is coated to Nunc 96 well plates at 80 μg/mL overnight at 4° C. […] Test compounds are added in 10 μL DMSO, and the reaction is started by addition of 10 μL kinase in assay buffer. The reaction proceeds 2 h at room temperature. Next the plates are washed four times, and the level of tyrosine phosphorylation in a given well is quantified by standard ELISA assay utilizing a phosphotyrosine antibody (PY20, Pierce).
# LCK = target: T2, LCK (Homo sapiens, UniProt P06239); assay: LCK-Homogeneous Time Resolved Fluorescent (HTRF) Kinase Assay; format: biochemical; conditions: LCK KD GST (225-509)
# T2 construct: 15 μL of LCK KD GST (225-509) for a final volume of 40 μL; GST
# T2 sequence (P06239 225-509): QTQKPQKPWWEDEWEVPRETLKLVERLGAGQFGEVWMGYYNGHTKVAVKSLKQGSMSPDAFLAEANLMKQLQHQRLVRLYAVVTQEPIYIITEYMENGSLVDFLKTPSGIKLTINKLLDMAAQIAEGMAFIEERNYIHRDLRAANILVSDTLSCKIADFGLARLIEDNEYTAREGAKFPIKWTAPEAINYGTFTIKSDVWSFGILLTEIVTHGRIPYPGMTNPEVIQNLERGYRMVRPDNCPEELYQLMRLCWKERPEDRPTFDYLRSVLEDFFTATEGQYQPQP
# Protocol: The LCK HTRF assay begins with LCK in the presence of ATP phosphorylating the biotinylated peptide Gastrin. The reaction incubates for 90 min. To quench the assay detection reagents are added which both stop the reaction by diluting out the enzyme and chelating the metals due to the presence of EDTA. Once the detection reagents are added the assay incubates for 30 min to allow for equilibration of the detection reagents.
# The final concentration of gastrin is 1.2 μM. The final concentration of ATP is 0.5 μM (Km app=[…]) and the final concentration of LCK is […]. Buffer conditions are as follows: 50 mM HEPES pH 7.5, 50 mM NaCl, 20 mM MgCl, 5 mM MnCl, 2 mM DTT, 0.05% BSA.
# The assay is quenched and stopped with 160 μL of detection reagent. Detection reagents are as follows: Buffer made of 50 mM Tris, pH 7.5, 100 mM NaCl, 3 mM EDTA, 0.05% BSA, 0.1% Tween20. Added to this buffer prior to reading is Steptavidin allophycocyanin (SA-APC) at a final conc in the assay of 0.0004 mg/mL, and europilated anti-phosphotyrosine Ab (Eu-anti-PY) at a final conc of 0.025 nM.
# The assay plate is read in either a Discovery or a RubyStar. The eu-anti-PY is excited at 320 nm and emits at 615 nm to excite the SA-APC which in turn emits at 655 nm. The ratio of SA-APC at 655 nm (excited due to close proximity to the Eu-anti-PY because of phosphorylation of the peptide) to free Eu-anti-PY at 615 nm will give substrate phosphorylation.
# C8 cells = assay: ACK1 Cell Based Assay, test (C8) cell line; conditions: 0.125% FCS, 20 to 24 h; for IC50: cell viability (Cytotox One kit)
# Protocol: as §1, §2
Structure (SMILES),Ki (ACK1),Ki (LCK),cytotoxic effect on HeLa cells (HeLa cells),cytotoxicity to C8 cells (C8 cells),IC50 (C8 cells)
"CN(C)CCOc1ccc(-c2[nH]c3ncnc(NC[C@@H]4CCC[C@H]4N)c3c2-c2ccccc2)cc1 (relative stereo) [Example 40, trans-(2-Amino-cyclopentylmethyl)-{6-[4-(2-dimethylamino-ethoxy)-phenyl]-5-phenyl-7H-pyrrolo[2,3-d]pyrimidin-4-yl}-amine]",> 100 nM,< 10 nM,,,> 100 nM
"CN(C)CCNC(=O)c1ccc(-c2[nH]c3ncnc(NCC4CCCO4)c3c2-c2ccccc2)cc1 (centres unmarked) [Example 32, N-(2-Dimethylamino-ethyl)-4-{5-phenyl-4-[(tetrahydrofuran-2-ylmethyl)-amino]-7H-pyrrolo[2,3-d]pyrimidin-6-yl}-benzamide]",< 10 nM,< 10 nM,,,10 to 100 nM
"CN(C)CCOc1ccc(-c2[nH]c3ncnc(NCC4CCC4)c3c2-c2ccccc2)cc1 [Example 34, Cyclobutylmethyl-{6-[4-(2-dimethylamino-ethoxy)-phenyl]-5-phenyl-7H-pyrrolo[2,3-d]pyrimidin-4-yl}-amine]",10 to 100 nM,< 10 nM,,,> 100 nM
"O=S(=O)(NCC(O)CO)c1ccc(-c2[nH]c3ncnc(NC[C@@H]4CCCO4)c3c2-c2ccccc2)cc1 (some centres unmarked) [Example 16, N-(2,3-Dihydroxy-propyl)-4-{5-phenyl-4-[(tetrahydrofuran-2-ylmethyl)-amino]-7H-pyrrolo[2,3-d]pyrimidin-6-yl}-benzenesulfonamide]",< 10 nM,< 10 nM,,,> 100 nM

# Continued, in another order:
Ki (ACK1),Ki (LCK),Structure (SMILES),cytotoxic effect on HeLa cells (HeLa cells),cytotoxicity to C8 cells (C8 cells),IC50 (C8 cells)
< 10 nM,< 10 nM,"CN(C)CCOc1ccc(-c2[nH]c3ncnc(NC[C@@H]4CCCO4)c3c2-c2ccccc2)cc1 [Example 20, {6-[4-(2-Dimethylamino-ethoxy)-phenyl]-5-phenyl-7H-pyrrolo[2,3-d]pyrimidin-4-yl}-(tetrahydro-furan-2-ylmethyl)-amine]",no cytotoxic effect,cytotoxic,10 to 100 nM
< 10 nM,< 10 nM,"C=CCNS(=O)(=O)c1ccc(-c2[nH]c3ncnc(NCC4CCCO4)c3c2-c2ccccc2)cc1 (centres unmarked) [Example 12, N-Allyl-4-{5-phenyl-4-[(tetrahydro-furan-2-ylmethyl)-amino]-7H-pyrrolo[2,3-d]pyrimidin-6-yl}-benzenesulfonamide]",,,> 100 nM
< 10 nM,< 10 nM,"O=C1CCCN1CCOc1ccc(-c2[nH]c3ncnc(NCC4CCCO4)c3c2-c2ccccc2)cc1 (centres unmarked) [Example 23, 1-[2-(4-{5-Phenyl-4-[(tetrahydrofuran-2-ylmethyl)-amino]-7H-pyrrolo[2,3-d]pyrimidin-6-yl}-phenoxy)-ethyl]-pyrrolidin-2-one]",,,10 to 100 nM
< 10 nM,10 to 100 nM,"CCOC(=O)CN(CC(=O)OCC)S(=O)(=O)c1ccc(-c2[nH]c3ncnc(NCC4CCCO4)c3c2-c2ccccc2)cc1 (centres unmarked) [Example 14, [Ethoxycarbonylmethyl-(4-{5-phenyl-4-[(tetrahydrofuran-2-ylmethyl)-amino]-7H-pyrrolo[2,3-d]pyrimidin-6-yl}-benzenesulfonyl)-amino]-acetic acid ethyl ester]",,,> 100 nM
< 10 nM,< 10 nM,"CN(C)C(=O)c1ccc(-c2[nH]c3ncnc(NCC4CCCO4)c3c2-c2ccccc2)cc1 (centres unmarked) [Example 27, N,N-Dimethyl-4-{5-phenyl-4-[(tetrahydrofuran-2-ylmethyl)-amino]-7H-pyrrolo[2,3-d]pyrimidin-6-yl}-benzamide]",,,10 to 100 nM
